pEC50: −log10 of the molar value. “And” between values parts separate entries of the source, which are not always exact repeats. Equal entries are not always repeated.
Tests used:
[1] = system: Zika virus; assay: EC50 is reported via analysis of immunofluorescence staining. The assay has been performed by Icahn School of Medicine at Mount Sinai.; assay type: functional, organism-based, Chlorocebus sabaeus, VeroE6/TMPRSS2
[2] = system: dengue virus type 2; assay: (§1) Functional immunofluorescence assay to measure dose dependent changes in antiviral-drug inhibitory efficacy against Dengue virus type 2 Thailand/16681/84 in Vero E6/TMPRSS2 cells (cotreated with P-gp inhibitor, Elacridar). Cells are treated with antiviral candidates that are serially diluted, following infection, cells are fixed. EC50 is reported via analysis of immunofluorescence staining. The assay has been performed by Icahn School of Medicine at Mount Sinai.; assay type: organism-based, Chlorocebus sabaeus, VeroE6/TMPRSS2; details: for EC90: Baseline response 0 %, P-gp concentration 2 uM, P-gp inhibitor Elacidar
[3] = system: Zika virus; assay: as §1, with “Zika” for “Dengue”, “PRVABC59” for “type 2 Thailand/16681/84”, “cells.” for “cells (cotreated with P-gp inhibitor, Elacridar).”; assay type: organism-based, Chlorocebus sabaeus; details: for pEC50: VeroE6/TMPRSS2
[4] = system: dengue virus type 2; assay: as §1, with “cells.” for “cells (cotreated with P-gp inhibitor, Elacridar).”; assay type: organism-based, Chlorocebus sabaeus
[5] = system: dengue virus type 2; assay: Functional CPE-based assay to measure dose dependent changes in antiviral-drug inhibitory efficacy against Dengue virus type 2 New Guinea C in Huh7 cells. Cells are treated with antiviral candidates that are serially diluted. EC50 is reported via analysis of MTT/MTS assay as a readout of CPE. The assay has been performed by National Institute of Allergy and Infectious Diseases.; assay type: organism-based, Homo sapiens; details: Huh-7
[6] = system: Zika virus; assay: (§2) Functional CPE-based assay to measure dose dependent changes in antiviral-drug inhibitory efficacy against Zika virus MR766 in Vero E6 miRFP670 cells. Cells are treated with antiviral candidates that are serially diluted. EC50 is reported via analysis of MTS assay as a readout of CPE. The assay has been performed by KU Leuven.; assay type: organism-based, Chlorocebus sabaeus, Vero C1008; details: Zika virus; for pEC50: Vero C1008
[7] = system: dengue virus type 2; assay: Functional assay to measure dose dependent changes in antiviral-drug inhibitory efficacy against Dengue virus type 2 New Guinea C in Vero E6 miRFP670 cells (cotreated with P-gp inhibitor, CP100356). Cells are treated with antiviral candidates that are serially diluted, following infection, cells are fixed. EC50 is reported via analysis of fluorescence intensity using high-content imager. The …; assay type: organism-based, Chlorocebus sabaeus, Vero C1008; details: for EC90: Baseline response 0 %, Maximum response 100 %, P-gp concentration 500 nM, P-gp inhibitor CP100356
[8] = system: Zika virus; assay: as §2, with “cells (cotreated with P-gp inhibitor, CP100356).” for “cells.”; assay type: organism-based, Chlorocebus sabaeus, Vero C1008; details: Zika virus, Vero C1008

`NCc1ccc(-c2ncc(OCC3CCNCC3)nc2-c2ccc(-c3ccoc3)cc2)cc1` showed a pEC50 ([1]; Zika virus, VeroE6/TMPRSS2) of 6.95, an EC90 ([1]; Zika virus, VeroE6/TMPRSS2) of 16.5 µM and a pEC50 ([2]; Dengue virus, VeroE6/TMPRSS2) of 6.00. The EC90 ([2]; Dengue virus, VeroE6/TMPRSS2, Hill slope -0.497, Maximum measured 90.326 %, Maximum response 100 %, Minimum measured 29.879 %, R squared 0.819) was > 16.7 µM, the pEC50 [3] was < 4.30 and the EC90 ([3]; VeroE6/TMPRSS2, Maximum measured 394.841 %, Minimum measured 61.013 %) was > 50 µM. For the same compound, the pEC50 ([4]; VeroE6/TMPRSS2) was 4.79, the EC90 ([4]; VeroE6/TMPRSS2, Baseline response -26.43 %, Hill slope -19.353, Maximum measured 64.866 %, Maximum response 59.51 %, Minimum measured 1.549 %, R squared 0.583) was > 16.7 µM and the pEC50 [5] was < 5.26.
For `CCCC[C@H](NC(C)=O)C(=O)N[C@H](C(=O)NCc1ccc(C(N)=O)cc1)c1ccc(OCc2ccccc2)cc1`, the pEC50 ([1]; Zika virus, VeroE6/TMPRSS2) was < 4.30, the EC90 ([1]; Zika virus, VeroE6/TMPRSS2, Maximum measured 173.346 %, Minimum measured 74.645 %, P-gp concentration 2 uM, P-gp inhibitor Elacidar) was > 50 µM and the EC90 ([1]; Zika virus, VeroE6/TMPRSS2, Baseline response 0 %, Hill slope 0.304, Maximum measured 106.185 %, Maximum response 100 %, Minimum measured 70.235 %, P-gp concentration 2 uM, R squared 0.184, P-gp inhibitor Elacidar) was > 50 µM. The EC90 ([2]; Hill slope -0.583, Maximum measured 72.286 %, Maximum response 50 %, Minimum measured 22.28 %, R squared 0.087) was > 50 µM, the EC90 ([2]; Dengue virus, VeroE6/TMPRSS2, Hill slope -0.364, Maximum measured 95.574 %, Maximum response 100 %, Minimum measured 8.045 %, R squared 0.69) was > 50 µM and the pEC50 [5] was 5.28.
For `O=C(Nc1ccc2c(c1)B(O)OC2)c1cccc(OCc2c(Cl)cccc2Cl)c1`, the pEC50 [3] was 5.96, the EC90 ([3]; VeroE6/TMPRSS2, Baseline response 0 %, Hill slope -0.477, Maximum measured 91.001 %, Maximum response 100 %, Minimum measured 4.308 %, R squared 0.689) was > 16.7 µM and the pEC50 ([4]; VeroE6/TMPRSS2) was 6.81. For the same compound, the EC90 ([4]; VeroE6/TMPRSS2) was 0.735 µM and the pEC50 [5] was < 5.72.
`CC1(C)Cc2sc(NC(=O)Cc3ccc(S(N)(=O)=O)cc3)c(C#N)c2CN1CC1CCCCC1` was tested, and the pEC50 [6] was < 4.30, the EC90 ([6]; Vero C1008, Maximum measured -0.002 %, Minimum measured -8.758 %) was > 50 µM and the pEC50 ([7]; Dengue virus, Vero C1008) was > 6.41. For the same compound, the EC90 ([7]; Dengue virus, Vero C1008, Hill slope -4.912, Maximum measured 6.91 %, Minimum measured 0.005 %, R squared 0.81) was < 0.391 µM and the pEC50 [5] was > 8.00.
`O=C(O)c1cc(Oc2ccc(F)cc2)c(F)cc1NS(=O)(=O)c1ccc(Oc2ccccc2Cl)cc1` was tested, and the EC90 ([1]; Baseline response 0 %, Hill slope -0.477, Maximum measured 92.293 %, Maximum response 50 %, Minimum measured 32.859 %, P-gp concentration 2 uM, R squared 0.014, P-gp inhibitor Elacidar) was > 16.7 µM, the EC90 ([1]; Zika virus, VeroE6/TMPRSS2, Baseline response 0 %, Hill slope -0.324, Maximum measured 79.955 %, Maximum response 100 %, Minimum measured 28.499 %, P-gp concentration 2 uM, R squared 0.691, P-gp inhibitor Elacidar) was > 16.7 µM and the pEC50 ([2]; Dengue virus, VeroE6/TMPRSS2) was < 4.78. For the same compound, the EC90 ([2]; Dengue virus, VeroE6/TMPRSS2, Hill slope -0.235, Maximum measured 89.319 %, Maximum response 100 %, Minimum measured 56.356 %, R squared 0.164) was > 16.7 µM and the pEC50 [5] was < 4.70.
For `c1cc(C2CCN(Cc3c[nH]c4ccccc34)CC2)c2ccncc2c1`, the EC90 ([1]; Baseline response 0 %, Hill slope -0.578, Maximum measured 88.327 %, Maximum response 100 %, Minimum measured 9.758 %, P-gp concentration 2 uM, R squared 0.671, P-gp inhibitor Elacidar) was > 50 µM, the EC90 ([1]; Zika virus, VeroE6/TMPRSS2) was 25.3 µM and the EC90 ([2]; EC90 CI (lower) 0 uM, EC90 CI (upper) 0.011 uM, Hill slope -0.624, Maximum measured 68.2 %, Maximum response 100 %, Minimum measured 5.474 %, R squared 0.683) was 1.58 µM. The EC90 ([2]; EC90 CI (lower) 0 uM, EC90 CI (upper) […] uM, Hill slope -0.4, Maximum measured 23.467 %, Maximum response 30 %, Minimum measured 3.547 %, R squared 0.817) was 16.1 µM, the pEC50 ([2]; veroe6/tmprss2) was 7.33 and > 7.64 and the pEC50 [3] was 5.15. The EC90 ([3]; VeroE6/TMPRSS2, Baseline response 0 %, Hill slope -0.669, Maximum measured 111.623 %, Maximum response 100 %, Minimum measured 18.809 %, R squared 0.805) was > 50 µM, the pEC50 ([4]; VeroE6/TMPRSS2) was 6.47 and the EC90 ([4]; VeroE6/TMPRSS2, Baseline response 0 %, EC90 CI (lower) 0 uM, EC90 CI (upper) 0.803 uM, Hill slope -0.593, Maximum measured 141.896 %, Maximum response 100 %, Minimum measured 11.317 %, R squared 0.319) was 13.6 µM. It also gave a pEC50 ([7]; Dengue virus, Vero C1008) of 5.57, an EC90 ([7]; Dengue virus, Vero C1008, EC90 CI (lower) 0.253 uM, EC90 CI (upper) 1.159 uM, Hill slope -1.373, Maximum measured 83.881 %, Minimum measured 4.274 %, R squared 0.884) of 13.3 µM and a pEC50 [5] of 4.57.
With `O=C(NCC(F)(F)F)c1cc(Cl)c(F)cc1NS(=O)(=O)c1ccc(Oc2ccccc2Cl)cc1` the pEC50 [6] was < 4.30, the EC90 ([6]; Vero C1008, Maximum measured -0.734 %, Minimum measured -10.955 %) was > 50 µM and the pEC50 ([7]; Dengue virus, Vero C1008) was 5.42. For the same compound, the EC90 ([7]; Dengue virus, Vero C1008, EC90 CI (lower) 2.885 uM, EC90 CI (upper) 3.374 uM, Hill slope -11.236, Maximum measured 107.639 %, Minimum measured 0.022 %, R squared 0.991) was 4.61 µM and the pEC50 [5] was < 5.72.
`COc1cc(N[C@@H](C(=O)N2CCc3ccc(OC(F)(F)F)cc32)c2ccc(Cl)cc2)cc(OCCCC(=O)O)c1` was tested, and the pEC50 ([1]; Zika virus, VeroE6/TMPRSS2) was < 5.00, the EC90 ([1]; Zika virus, VeroE6/TMPRSS2, Maximum measured 96.7 %, Minimum measured 47.971 %, P-gp concentration 2 uM, P-gp inhibitor Elacidar) was > 10 µM and the EC90 ([1]; Zika virus, VeroE6/TMPRSS2, Maximum measured 158.114 %, Minimum measured 73.503 %, P-gp concentration 2 uM, P-gp inhibitor Elacidar) was > 10 µM. For the same compound, the EC90 ([1]; Zika virus, VeroE6/TMPRSS2, Baseline response 0 %, Hill slope -19.172, Maximum measured 90.933 %, Maximum response 60 %, Minimum measured 7.507 %, P-gp concentration 2 uM, R squared 0.342, P-gp inhibitor Elacidar) was > 16.7 µM, the pEC50 ([1]; veroe6/tmprss2) was 4.82 and the EC90 ([2]; Hill slope 0.035, Maximum measured 8.614 %, Maximum response 100 %, Minimum measured 2.814 %, R squared 0.022) was < 0.023 µM. The EC90 ([2]; Hill slope -0.067, Maximum measured 2.038 %, Maximum response 100 %, Minimum measured 0.482 %, R squared 0.032) was < 0.005 µM, the EC90 ([2]; Hill slope -0.192, Maximum measured 3.988 %, Maximum response 100 %, Minimum measured 0.35 %, R squared 0.503) was < 0.005 µM and the pEC50 ([2]; veroe6/tmprss2) was > 8.30. The pEC50 [6] was < 5.20, the EC90 ([6]; Vero C1008, Baseline response 0 %, Hill slope 1.919, Maximum measured 39.533 %, Maximum response 100 %, Minimum measured 0.481 %, R squared 0.987) was > 6.25 µM and the EC90 ([6]; Vero C1008, Baseline response 0 %, Hill slope 2.194, Maximum measured 37.889 %, Maximum response 100 %, Minimum measured -0.884 %, R squared 0.976) was > 6.25 µM. For the same compound, the EC90 ([6]; Vero C1008, Baseline response 0 %, Hill slope 2.262, Maximum measured 0.1 %, Maximum response 100 %, Minimum measured -2.404 %, R squared 0.714) was > 6.25 µM, the pEC50 [8] was < 5.20 and the EC90 ([8]; Baseline response 0 %, Hill slope 1.255, Maximum measured 36.243 %, Maximum response 100 %, Minimum measured 3.426 %, P-gp concentration 500 nM, R squared 0.925, P-gp inhibitor CP100356) was > 6.25 µM. For the same compound, the EC90 ([7]; EC90 CI (lower) 26.978 uM, EC90 CI (upper) 1103.75 uM, Hill slope 1.671, Maximum measured 3.58 %, Minimum measured 0.058 %, R squared 0.662) was < 0.391 µM, the EC90 ([7]; Hill slope 0.149, Maximum measured 0.277 %, Minimum measured 0.08 %, R squared 0.031) was < 0.391 µM and the EC90 ([7]; Hill slope 0.294, Maximum measured 5.954 %, Minimum measured 0.022 %, R squared 0.035) was < 0.391 µM. For the same compound, the pEC50 ([7]; Dengue virus, Vero C1008) was > 6.41, the EC90 ([7]; Dengue virus, Vero C1008, Hill slope -0.103, Maximum measured 0.223 %, Minimum measured 0.035 %, R squared 0.026) was < 0.391 µM and the pEC50 [5] was > 8.00.

From ChEMBL document CHEMBL5661943, “ASAP - In vitro antiviral effect” (2024)
